Test results from ChEMBL document CHEMBL1151768, “Resin glycoside constituents of Ipomoea pes-caprae (beach morning glory)” (J Nat Prod, 2008).
Activity calls are given as the source filed them.

Tests used:
[1] = test system: P388; test: Cytotoxicity against mouse P388 cells by MTT assay; format: functional, cell-based
[2] = test system: Staphylococcus aureus; test: Antimicrobial activity against Staphylococcus aureus by agar dilution method; format: functional, organism-based
[3] = test system: Bel-7402; test: Cytotoxicity against human BEL-7402 cells by SRB method; format: functional, cell-based
[4] = test system: Escherichia coli; test: Antimicrobial activity against Escherichia coli by agar dilution method; format: functional, organism-based
[5] = target: Mu-type opioid receptor (Rattus norvegicus) (UniProt P33535); test: Displacement of [3H]DAMGO from rat mu opioid receptor expressed in GH3 cells; format: cell-based
Chain of Mu-type opioid receptor (Rattus norvegicus) (P33535 whole entry): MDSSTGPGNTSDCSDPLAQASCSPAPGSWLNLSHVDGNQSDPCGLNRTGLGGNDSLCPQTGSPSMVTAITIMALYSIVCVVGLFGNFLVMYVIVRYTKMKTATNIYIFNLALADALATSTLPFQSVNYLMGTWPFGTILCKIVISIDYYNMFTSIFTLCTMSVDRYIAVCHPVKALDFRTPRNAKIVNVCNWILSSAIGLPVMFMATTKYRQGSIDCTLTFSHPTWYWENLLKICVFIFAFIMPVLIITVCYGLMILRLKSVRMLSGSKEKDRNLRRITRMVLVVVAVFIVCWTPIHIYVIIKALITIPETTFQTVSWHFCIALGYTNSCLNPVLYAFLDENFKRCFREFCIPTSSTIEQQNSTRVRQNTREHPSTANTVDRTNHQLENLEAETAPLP

[6] = test system: Candida albicans; test: Antimicrobial activity against Candida albicans by agar dilution method; format: functional, organism-based
[7] = test system: HL-60; test: Cytotoxicity against human HL60 cells by MTT assay; format: functional, cell-based
[8] = test system: A549; test: Cytotoxicity against human A549 cells by SRB method; format: functional, cell-based
[9] = test system: Bacillus subtilis; test: Antimicrobial activity against Bacillus subtilis by agar dilution method; format: functional, organism-based
[10] = test system: Klebsiella aerogenes; test: Antimicrobial activity against Enterobacter aerogenes by agar dilution method; format: functional, organism-based

Measured: Activity

CCCCCCCCCC(=O)O[C@H]1[C@H](O[C@@H]2[C@@H](O)[C@H]3OC(=O)CCCCCCCCCC[C@H](CCCCC)O[C@@H]4O[C@H](C)[C@H](O)[C@H](O)[C@H]4O[C@@H]3O[C@H]2C)O[C@@H](C)[C@H](O[C@@H]2O[C@@H](C)[C@H](OC(=O)C(C)C)[C@@H](OC(=O)/C=C/c3ccccc3)[C@H]2O)[C@H]1O[C@@H]1O[C@@H](C)[C@H](O)[C@@H](O)[C@H]1O
inactive: [1] | [2] | [3] | [4] | [5] | [6] | [7] | [8] | [9] | [10]
